Experiment: Gravimetric vapor sorption (GVS)
Type: physicochemical
Protocol: GVS was used to determine the amount of water adsorbed by a sample. Briefly, samples were run on a Hiden IGASorp moisture sorption analyzer running CFRSorp software. Sample sizes were typically 10 mg. A moisture adsorption desorption isotherm was performed as outlined below in Table 3 (2 scans giving 1 complete cycle). Samples were loaded/unloaded at typical room humidity and temperature (40% RH, 25° C.). Samples were then analyzed by XRPD after GVS analysis, e.g., to determine whether any structural changes took place after adsorption of water. The standard isotherm was performed at 25° C. at 10% RH intervals over a 0-90% RH range.

Cc1cc2c(-c3ccccc3F)nc(N3CCNCC3)nc2s1.Cl [Form II, 4-(2-fluorophenyl)-6-methyl-2-(piperazin-1-yl)thieno[2,3-d]pyrimidine hydrochloride]
XRPD reanalysis after GVS (after one adsorption/desorption cycle): did not show any change | GVS weight increase (between 0 and 40% RH): 1.4% | GVS weight increase, equivalent water (between 0 and 40% RH): 0.29 moles of water | GVS weight increase, equivalent water (between 0 and 90% RH): 0.39 moles of water | GVS total weight increase (between 0 and 90% RH, single cycle, 25° C., hydrochloride): 1.9%
